Data taken from US20220396840A1, “IRON-SCORE AND IN VITRO METHOD FOR IDENTIFYING MANTLE CELL LYMPHOMA (MCL) SUBJECTS AND THERAPEUTIC USES AND METHODS” (priority 2019, published 2022).
Read-outs that look alike come from different tables or passages of the source.

Columns and labels:
MINO = assay: Cell viability assay (CellTiter-Glo, ATP quantification); assay type: cell-based; settings: Homo sapiens
Procedure: (§1) The 6 MCL cell lines (GRANTA-519, JEKO-1, MINO, MAVER-1, JVM-2 and REC-1) were purchased from the DSMZ (Leibniz-Institut DSMZ—Deutsche Sammlung von Mikroorganismen und Zellkulturen GmbH, Germany). They were maintained according to the supplier's recommendations. Cultures were maintained at 37° C. in a humidified atmosphere with 5% CO2.
(§2) MCL cell lines were cultured for 4 days in 96-well flat-bottom microtiter plates in RPMI 1640 medium or DMEM medium, 10% or 20% FCS (control medium) in the presence of various compounds. The number of viable cells in culture was determined using the CellTiter-Glo Luminescent Cell Viability Assay from Promega, Madison, Wis., USA using a Centro LB 960 luminometer (Berthold Technologies, Bad Wildbad, Germany).
(§3) This test is based on quantitation of the intracellular ATP present, which signals the presence of metabolically active cells. Data are expressed as the mean percentage of six replicates, normalized to the untreated control.
(§4) We investigated the therapeutic interest of iron metabolism inhibitors AM5 (Ironomycin) and AM23. The panel of 6 MCL cell lines were incubated with increasing concentrations of Ironomycin (FIG. 2 A), AM23 (FIG. 2 B) or vehicle for 96H (A). Inhibitory concentration 50% (IC50) was calculated with concentration-response curve after treatment with Ironomycin. Cell viability was examined using quantification of ATP assay. Data are expressed as mean percentage+/−SEM of at least three independent experiments performed in sixplicate. Tables 6 and 7 presenting the inhibitory concentration 50% (IC50) of Ironomycin and AM23 for the 6 MCL cell-lines.

REC-1 = assay: as above; assay type: cell-based; settings: Homo sapiens
Procedure: as §1, §2, §3, §4

JEKO-1 = assay: as above; assay type: cell-based; settings: Homo sapiens
Procedure: as §1, §2, §3, §4

MAVER-1 = assay: as above; assay type: cell-based; settings: Homo sapiens
Procedure: as §1, §2, §3, §4

JVM-2 = assay: as above; assay type: cell-based; settings: Homo sapiens
Procedure: as §1, §2, §3, §4

GRANTA-519 = assay: as above; assay type: cell-based; settings: Homo sapiens
Procedure: as §1, §2, §3, §4

primary MCL cells = assay: Primary MCL cells of patients cultured with CD40L, flow cytometry; assay type: cell-based, human
Procedure: (§5) In a first experiment, primary MCL cells were treated with Ironomycin and incubated during 96H with CD40L. The toxicity on MCL cells (A) and non-MCL cells (B) was analyzed by flow cytometry and expressed in % of control. N=5, Median+/−IQR, t-test of pairs. * P<0.05, ** P<0.01, *** P<0.001, **** P<0.0001.
These first results were further completed by additional experiments: primary MCL cell were treated with Ironomycin (C) or AM-23 (D) and incubated during 96H with recombinant CD40L.
Results represent the median±IQR of each population cells of nine (C) and six patients (D), respectively. Statistical significance was tested using t-test of pairs: * P<0.05, ** P<0.01 *** P<0.001, **** P<0.0001 and NS: non-significant.
(§6) Cells are obtained from lymph nodes or blood of 9 patients with MCL.
(§7) In a first experiment, primary MCL cells were treated with Ironomycin and incubated during 96H with CD40L. The toxicity on MCL cells (FIG. 7 A) and non-MCL cells (FIG. 7 B) was analyzed by flow cytometry and expressed in % of control.
The toxicity on MCL cells was analyzed by flow cytometry and expressed in % of control.

Phospho-H2A.X (S139) = assay: Western blot of Phospho-H2A.X (S139), DNA damage response; assay type: cell-based, human; settings: 100 nM for Jeko-1 and 500 nM for JVM-2, 24H
Procedure: Cells were treated with Ironomycin (100 nM for Jeko-1 and 500 nM for JVM-2) during 24H. Protein levels of Phospho-H2A.X (S139) were analyzed by western blot and normalized by β-actin protein level.
(§8) The total cell lysates were obtained with RIPA 1× lysis buffer (#9806, Cell Signaling®) according with the supplier recommendations.
Protein lysates migrate on 10% polyacrylamide gel (NP-0301, Novex, Life Technologies®), in MOPS 1× running buffer (NP0001, Novex, Life Technologies®) or MES 1× running buffer NP-0002, Novex, Life Technologies®) and proteins are transferred to nitrocellulose membrane (1B301001, I-Blot Transfert Starck, NuPAGE, Life Technologies®). The primary antibodies mouse-anti-phospho-Histone H2A.X (Ser139) clone JBW301 (1/1000, Merck Millipore), rabbit anti-cyclinD1 (#2926, 1/1000, Cell Signaling®), rabbit anti-phospho (S795)-Rb (#9301, 1/1000, Cell Signaling®), mouse anti-Rb (#9309, 1/1000, Cell Signaling®), mouse anti-CDK4 (#2906, 1/1000, Cell Signaling®) were incubated in TBS-Tween 20 0.1% (Tris-Buffered Saline, pH 7.4) with 5% non-fat milk or Bovine serum albumin (Sigma-Aldrich, A7906). […] Quantification of protein levels was performed with Image J® software (National Institutes of Health, Bethesda, Md., USA).
Protein levels of Phospho-H2A.X (S139) were analyzed by western blot and normalized by β-actin protein level (FIG. 5).

[1] = system: non-MCL cells (normal cells from the microenvironment); assay type: cell-based, human
Procedure: as §5, §6, §7

[2] = system: Jeko-1 and JVM-2 cell lines; assay: Cell cycle analysis by flow cytometry (BrdU/DAPI); assay type: cell-based, human; settings: IC50 Ironomycin for 24 hours
Procedure: Cells were incubated with vehicle or with IC50 Ironomycin for 24 hours.
The cell cycle progression was studied by flow cytometry using the Apoptosis, DNA Damage, and Cell Proliferation Kit (562253, Becton Dickinson). Briefly, cells were labeled with bromodeoxyuridine (BrdU), an analog of the DNA precursor thymidine that can be incorporated into newly synthesized DNA and detected with an antibody against BrdU to measure cell proliferation. After this labeling, the cells were fixed, permeabilized and treated with DNase to expose the BrdU epitopes. Following this treatment, cells were simultaneously stained with fluorochrome-labeled anti-BrdU, anti-cleaved Poly ADP-ribose polymerase 1 (PARP), anti-H2AX phosphorylated at serine 139. They were also stained with DAPI to determine DNA content. Finally, cells were resuspended in staining buffer and analyzed by flow cytometry (Fortessa, Becton Dickinson).
Cells were incubated with vehicle or with IC50 Ironomycin for 24 hours. […] (FIG. 4)

[3] = system: Jeko-1 and JVM-2 MCL cell lines; settings: deferasirox 80 μM, Ironomycin 50 nM and 500 nM, 72H
Procedure: Jeko-1 and JVM2 cell line was pre-incubated with or without 80 μM of deferasirox or 50 nM and 500 nM of Ironomycin, respectively, for 4 hours followed by 72H incubation in presence or absence of FeCl3 (100 μM). Apoptosis was assessed using Annexin V-PE staining by flow cytometry.
AnnexinV-PE staining for apoptosis analysis was performed using the “PE Annexin V Apoptosis Detection Kit I” (559763, Becton Dickinson).
The inventors further investigated the effect of Iron supplementation on the cell death induced by these treatments. Iron chelator (Deferasirox) concentrations were chosen according the maximal plasmatic concentration achievable in the patient (Nisbet-Brown et al., 2003).

[4] = system: Cyclin D1, phospho-Rb, CDK4 in Jeko-1 and JVM2 cells; assay: Western blot of cyclinD1, phospho-Rb, Rb and CDK4; assay type: cell-based, human; settings: 100 nM Jeko-1, 500 nM JVM2, 24H
Procedure: Jeko-1 and JVM2 cells were treated with Ironomycin (100 nM and 500 nM, respectively) during 24H. Protein levels of cyclinD1, phospho-Rb, Rb and CDK4 were analyzed by western blot and normalized by the β-actin expression level. This Cyclin D1 downregulation is associated with a downregulation of Rb phosphorylation and CDK4 protein levels.
as §8
Protein lysates migrate on 10% polyacrylamide gel (NP-0301, Novex, Life Technologies®), in MOPS 1× running buffer (NP0001, Novex, Life Technologies®) or MES 1× running buffer NP-0002, Novex, Life Technologies®) and proteins are transferred to nitrocellulose membrane (1B301001, I-Blot Transfert Starck, NuPAGE, Life Technologies®). The primary antibodies mouse-anti-phospho-Histone H2A.X (Ser139) clone JBW301 (1/1000, Merck Millipore), rabbit anti-cyclinD1 (#2926, 1/1000, Cell Signaling®), rabbit anti-phospho (S795)-Rb (#9301, 1/1000, Cell Signaling®), mouse anti-Rb (#9309, 1/1000, Cell Signaling®), mouse anti-CDK4 (#2906, 1/1000, Cell Signaling®) were incubated in TBS-Tween 20 0.1% (Tris-Buffered Saline, pH 7.4) with 5% non-fat milk or Bovine serum albumin (Sigma-Aldrich, A7906). Protein levels are objectified by labeling with an anti-β-actin mouse monoclonal antibody (Sigma, A5441, St Louis, Mo., USA 1/1000). Primary antibodies are visualized with secondary anti-rabbit antibodies (Sigma®, A9169) or anti-mouse antibodies (Jackson, 115-036-068) coupled to peroxidase allows the development by chemiluminescence by Western Lightning ECL (NEL121001EA, Perkin Elmer®). Quantification of protein levels was performed with Image J® software (National Institutes of Health, Bethesda, Md., USA).
Mantle cell lymphoma (MCL) is now recognized as an aggressive B-cell lymphoma with various growth patterns (mantle zone, nodular, or diffuse) and a broad range of cytologic features. […]

[5] = system: hematopoietic progenitors
Jeko-1 and JVM-2 cells = assay: Drug combination concentration matrix, cell viability by ATP quantification, Bliss synergy matrix; assay type: cell-based, human; settings: 96 h
Procedure: Jeko-1 and JVM-2 cells were treated with increasing concentrations of ironomycin combined with ibrutinib (BTK inhibitor) for 96 h and cell viability was tested by ATP quantification to obtain the viability matrix. The synergy matrix was calculated as described in Material and Methods.
Jeko-1 and JVM-2 cells were treated with increasing concentrations of ironomycin combined with Venetoclax (BCL2 inhibitor) for 96 h and cell viability was tested by ATP quantification to obtain the viability matrix. The synergy matrix was calculated as described in Material and Methods.
Jeko-1 and JVM-2 cells were treated with increasing concentrations of ironomycin combined with doxorubicin for 96 h and cell viability was tested by ATP quantification to obtain the viability matrix. The synergy matrix was calculated as described in Material and Methods.
The interaction between the drugs tested in vitro was investigated with a concentration matrix test, in which increasing concentration of each single drug were assessed with all possible combinations of the other drugs. For each combination, the percentage of expected growing cells in the case of effect independence was calculated according to the Bliss equation (Combes et al., 2019): […]
where fuC is the expected fraction of cells unaffected by the drug combination in the case of effect independence, and fuA and fuB are the fractions of cells unaffected by treatment A and B, respectively. The difference between the fraction of living cells in the cytotoxicity test and the fuC value was considered as an estimation of the interaction effect, with positive values indicating synergism and negative values antagonism.
Synergy matrix was built with the R package “SynergyFinder”.

[6] = Homo sapiens, 96 h, read-out: reduction of the median number of viable primary MCL cells

Structure (SMILES): CC[C@@H](C(=O)[C@@H](C)[C@@H](O)[C@H](C)[C@@H]1O[C@@H]([C@@H](CC)C(=O)O)CC[C@@H]1C)[C@H]1O[C@]2(C=C[C@@H](NC3CC3)[C@]3(CC[C@@](C)([C@H]4CC[C@](O)(CC)[C@H](C)O4)O3)O2)[C@H](C)C[C@@H]1C [AM-23]
- IC50 (MINO; 96 h): 43 nM
- IC50 (REC-1; Rec1, 96 h): 6.8 nM
- IC50 (JEKO-1; JeKo-1, 96 h): 8 nM
- IC50 (MAVER-1; Maver1, 96 h): 17.3 nM
- IC50 (JVM-2; JVM-2, 96 h): 58 nM
- IC50 (GRANTA-519; Granta-519, 96 h): 845 nM
- cytotoxicity at 0.01 µM (primary MCL cells; [6]): 34%
- cytotoxicity at 0.02 µM (primary MCL cells; [6]): 58%
- cytotoxicity at 0.05 µM (primary MCL cells; [6]): 60%
- cytotoxicity at 0.1 µM (primary MCL cells; [6]): 64%

Structure (SMILES): C#CCN[C@@H]1C=C[C@]2(O[C@H]([C@@H](CC)C(=O)[C@@H](C)[C@@H](O)[C@H](C)[C@@H]3O[C@@H]([C@@H](CC)C(=O)O)CC[C@@H]3C)[C@@H](C)C[C@H]2C)O[C@@]12CC[C@@](C)([C@H]1CC[C@](O)(CC)[C@H](C)O1)O2 [Ironomycin]
- DNA damage response (Serine 139 phosphorylation of H2A.X) (Phospho-H2A.X (S139)): induces DNA damage response
- toxicity for non-tumor cells from the microenvironment [1]: without major toxicity
- toxicity in MCL cells compared to normal cells from the microenvironment [1]: higher toxicity in MCL cells compared to normal cells
- cell cycle [2]: induces MCL cell cycle defect
- apoptosis monitored by Annexin V staining [3]: induces apoptosis
- CDK4 protein levels [4]: downregulation
- Cyclin D1 protein level [4]: significant downregulation
- RB phosphorylation [4]: downregulation
- IC50 (MINO; 96H incubation, cell viability by ATP, read-out: IC50): 54.4 nM
- IC50 (REC-1; Rec1, REC-1, 96H incubation, cell viability by ATP, read-out: IC50): 53.4 nM
- IC50 (JEKO-1; JEKO-1, 96H incubation, cell viability by ATP, read-out: IC50): 12.8 nM
- IC50 (MAVER-1; Maver1, MAVER-1, 96H incubation, cell viability by ATP, read-out: IC50): 50.5 nM
- IC50 (JVM-2; JVM-2, 96H incubation, cell viability by ATP, read-out: IC50): 139 nM
- IC50 (GRANTA-519; GRANTA-519, 96H incubation, cell viability by ATP, read-out: IC50): 802 nM
- toxicity on hematopoietic progenitors [5]: low toxicity
- median number of viable primary MCL cells (first experiment) (primary MCL cells; 20 nM, 50 nM and 100 nM, 96H with CD40L, N=5): significantly reduced
- cytotoxicity at 0.02 µM (primary MCL cells; [6]): 30%
- cytotoxicity at 0.05 µM (primary MCL cells; [6]): 46%
- cytotoxicity at 0.1 µM (primary MCL cells; [6]): 53%
- interaction effect in combination with Doxorubicin (Jeko-1 and JVM-2 cells): synergistic effect
- interaction effect in combination with Ibrutinib (BTK inhibitor) (Jeko-1 and JVM-2 cells): synergistic effect
- interaction effect in combination with Venetoclax (Bcl2 inhibitor) (Jeko-1 and JVM-2 cells): synergistic effect
